Reference: patent publication US20060004012A1, “Compounds, pharmaceutical compositions and methods for use in treating metabolic disorders” (priority 2004, published 2006)

Biological target: T1, human GPR40 (Homo sapiens, UniProt O14842)
T1 construct: expressed in transfected cells; host or cells: CHO cells, transiently transfected with Lipofectamine 2000 and co-transfected with an aequorin expression vector (Euroscreen)
Assay: Cell-based aequorin assay using human GPR40
Conditions: activation of human GPR40; CHO cells transfected with GPR40 and aequorin expression vectors; aequorin luminescence, area-under-curve 2-20 seconds; read-out: Relative EC50
Method: A cell-based aequorin assay may be employed to characterize the modulatory activity of compounds on the GPR40 signaling pathway. In an exemplary assay, CHO cells are transfected in a 15 cm plated containing 14 million cells with 5 μg of GPR40 expression vector and 5 μg of Aequorin expression vector (Euroscreen) using Lipofectamine 2000 (Invitrogen). After 17-24 hours post-transfection, cells are washed with phosphate buffered saline (PBS) and detached from the tissue culture dish with 2 mL of trypsin (0.25%(w/v)). Trypsinization is halted with 28 mL of Hanks Buffered Salt Solution containing 20 mM Hepes (H/HBSS) and 0.01% fatty acid-free bovine serum albumin (BSA) or 0.625% fatty acid-free human serum albumin (HSA). Coelantrazine is added to 1 ug/mL and the cells are incubated for 2 hours at room temperature. Cells are gently mixed every 15 minutes. Compounds are dissolved in dimethyl sulfoxide for preparation of 10 mM stock solutions. Compounds are diluted in H/HBSS containing either 0.01% BSA or 0.625% HSA. Serial dilutions of the test compounds are prepared to determine dose response.
Aequorin luminescence measurements are made using an EG&G Berthold 96-well luminometer and the response is measured over a 20 second interval after cells and compounds were mixed. The area-under-curve from 2-20 seconds is plotted to determine dose reponse. The EC50 (effective concentration to reach 50% maximal response) is determined from the dose response plot. […]

T1 sequence (O14842 whole entry): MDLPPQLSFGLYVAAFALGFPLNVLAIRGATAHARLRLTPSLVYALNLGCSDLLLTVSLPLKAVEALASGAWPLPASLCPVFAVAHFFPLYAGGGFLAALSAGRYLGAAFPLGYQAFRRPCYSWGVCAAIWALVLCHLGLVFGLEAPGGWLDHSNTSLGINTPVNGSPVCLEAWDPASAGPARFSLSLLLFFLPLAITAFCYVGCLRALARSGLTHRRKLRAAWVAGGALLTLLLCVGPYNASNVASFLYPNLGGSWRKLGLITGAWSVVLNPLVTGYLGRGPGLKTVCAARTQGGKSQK

Row | SMILES | EC50
1 | Cc1ccccc1C(CC(=O)O)c1ccc(OCc2cccc(Oc3ccccc3)c2)cc1 (stereo not shown) [Compound 84.4] | 100 to 1000 nM
2 | CC#CC(CC(=O)O)c1ccc(N(Cc2cccc(OC)c2)Cc2cccc(OC)c2)cc1 (stereo not shown) [Compound 36.2] | 100 to 1000 nM
3 | COc1cccc(/C=C/C(=O)Nc2ccc(N(CC(=O)O)c3ccccc3)cc2)c1 [Compound 82.6] | < 10 nM
4 | Cc1ccc(C(CC(=O)O)c2ccc(OCc3cccc(Oc4ccccc4)c3)cc2)cc1 (single isomer, unassigned) [Compound 84.2] | 1000 to 10000 nM
5 | CC#CC(CC(=O)O)c1ccc(OCc2csc(-c3ccc(Cl)cc3)n2)cc1 (stereo not shown) [Compound 8.3] | 10 to 100 nM
6 | CC#CC(CC(=O)O)c1ccc(OCc2ccccc2C)cc1 (stereo not shown) [Compound 17.6] | 100 to 1000 nM
7 | COc1ccc(COc2ccc(C(C#C[Si](C)(C)C)CC(=O)O)cc2)cc1 (stereo not shown) [Compound 14.1] | 1000 to 10000 nM
8 | CC#CC(CC(=O)O)c1ccc(OCc2ccc(-c3ccccc3)cc2)cc1 (stereo not shown) [Compound 7.3] | 1000 to 10000 nM
9 | COc1ccc(COc2ccc(C(C)CC(=O)O)cc2)cc1 (stereo not shown) [Compound 14.4] | > 10000 nM
10 | CC#CC(CC(=O)O)c1ccc(OCc2cccc(-c3cccnc3)c2)cc1 (stereo not shown) [Compound 10.9] | 100 to 1000 nM
11 | CC#CC(CC(=O)O)c1ccc(OCc2cccc(N(CC)c3ccccc3)c2)cc1 (stereo not shown) [Compound 10.2] | 10 to 100 nM
12 | CC#CC(CC(=O)O)c1ccc(OCc2cn(-c3ccc(Cl)cc3)nn2)cc1 (stereo not shown) [Compound 76] | 1000 to 10000 nM
13 | CC#CC(CC(=O)O)c1ccc(OCc2sc(-c3ccc(C(F)(F)F)cc3)nc2C)cc1 (stereo not shown) [Compound 9.1] | 10 to 100 nM
14 | O=C(O)CC(c1ccc(OCc2cccc(Oc3ccccc3)c2)cc1)c1ccc(C(F)(F)F)cc1 (stereo not shown) [Compound 85.1] | 1000 to 10000 nM
15 | O=C(O)CC(c1ccc(OCc2cccc(Oc3ccccc3)c2)cc1)c1cccc(C(F)(F)F)c1 (stereo not shown) [Compound 85.2] | 100 to 1000 nM
16 | O=C(O)CC(c1ccc(Cl)cc1)c1ccc(OCc2cccc(Oc3ccccc3)c2)cc1 (stereo not shown) [Compound 84.5] | 100 to 1000 nM
17 | CC#CC(CC(=O)Nc1nnn[nH]1)c1ccc(OCc2ccc(OC)cc2)cc1 (stereo not shown) [Compound 25.1] | 1000 to 10000 nM
18 | CC#CC(CC(=O)O)c1ccc(OCc2cccc(-c3ccccc3OCC)c2)cc1 (stereo not shown) [Compound 6.2] | 10 to 100 nM
19 | O=C(O)C[C@H](NC(=O)/C=C/c1ccccc1)c1ccc(OCc2cccc(Oc3ccc(F)cc3)c2)cc1 [Compound 88.5] | > 10000 nM
20 | COc1ccc(COc2ccc(C(CC(=O)O)c3ccc(F)cc3)cc2)cc1 (stereo not shown) [Compound 14.2] | 100 to 1000 nM
21 | O=C(O)CC(c1ccc(OCc2cccc(Oc3ccccc3)c2)cc1)c1cccc(Cl)c1 (stereo not shown) [Compound 84.6] | 100 to 1000 nM
22 | CC#C[C@@H](CC(=O)O)c1ccc(OCc2cc(-c3ccccc3)oc2C)cc1 [Compound 5, 3-[4-(2-Methyl-5-phenyl-furan-3-ylmethoxy)-phenyl]-hex-4-ynoic acid] | 10 to 100 nM
23 | CC#C[C@@H](CC(=O)O)c1ccc(OCc2nc(-c3ccc(C(F)(F)F)cc3)oc2C)cc1 [Compound 86] | < 10 nM

Row | SMILES | EC50
24 | CC#CC(CC(=O)O)c1ccc(OCCc2ccccc2)cc1 (stereo not shown) [Compound 17.8] | 1000 to 10000 nM
25 | CC#CC(CC(=O)O)c1ccc(OCc2ccc(OC)cc2)cc1 (racemic) [Compound 12, (±)-3-(4-[(4-methoxyphenyl)methoxy]phenyl)-hex-4-ynoic acid] | 100 to 1000 nM
26 | CC#C[C@@H](CC(=O)O)c1ccc(OCc2ccccc2C)cc1 (single isomer, unassigned) [Compound 15] | 10 to 100 nM
27 | CC#CC(CC(=O)O)c1ccc(OCc2ccc(-c3ccc(C#N)cc3)cc2)cc1 (stereo not shown) [Compound 7.15] | 10 to 100 nM
28 | CC#C[C@H](CC(=O)O)c1ccc(OCc2ccc(OC)cc2)cc1 [Compound 40.5, (3R)-3-[4-(4-Methoxy-benzyloxy)-phenyl]-hex-4-ynoic acid] | 1000 to 10000 nM
29 | CC#CC(CC(=O)O)c1ccc(OCc2sc(-c3ccc(C)cc3)nc2C)cc1 (stereo not shown) [Compound 9.2] | < 10 nM
30 | Cc1ccccc1COc1ccc(C(C#CC2CC2)CC(=O)O)cc1 (stereo not shown) [Compound 72] | 100 to 1000 nM
31 | CCCCOc1ccc(C)cc1-c1ccc(COc2ccc(C(CC(=O)O)c3ccnn3C)cc2)cc1 (stereo not shown) [Compound 66.5] | 100 to 1000 nM
32 | CC#CC(CC(=O)O)c1ccc(OCc2cccc(Oc3ccccc3)c2)cc1 (stereo not shown) [Compound 10.3] | 10 to 100 nM
33 | CC#CC(CC(=O)O)c1ccc(OCc2nn(-c3ccccc3)nc2C)cc1 (stereo not shown) [Compound 26, 3-[4-(5-Methyl-2-phenyl-2H-[1,2,3]triazol-4-ylmethoxy)-phenyl]-hex-4-ynoic acid] | 10 to 100 nM
34 | Cc1cnc(C(CC(=O)O)c2ccc(OCc3cccc(-c4ccc(C(F)(F)F)cc4)c3)cc2)s1 (stereo not shown) [Compound 70.1] | 1000 to 10000 nM
35 | O=C(O)CC(c1ccc(OCc2cccc(-c3ccc(C(F)(F)F)cc3)c2)cc1)n1cccn1 (stereo not shown) [Compound 62.3] | 10 to 100 nM
36 | O=C(O)C[C@H](NC(=O)CCc1ccccc1)c1ccc(OCc2cccc(Oc3ccc(F)cc3)c2)cc1 [Compound 88.6] | > 10000 nM
37 | COc1cccc(CN(Cc2cccc(OC)c2)c2ccc(N(CC(=O)O)c3ccccc3)cc2)c1 [Compound 82.1] | < 10 nM
38 | CC#CC(CC(=O)O)c1ccc(OCc2ccc(-c3ccc(C(F)(F)F)cc3)cc2)cc1 (stereo not shown) [Compound 7.10] | 100 to 1000 nM
39 | CC#CC(CC(=O)O)c1ccc(OCc2cccc(-c3cccc(C(F)(F)F)c3)c2)cc1 (stereo not shown) [Compound 6.9] | 10 to 100 nM
40 | CC#CC(CC(=O)O)c1ccc(OCc2sc(-c3ccccc3)nc2C)cc1 (stereo not shown) [Compound 9.3] | 10 to 100 nM
41 | CC#CC(CC(=O)O)c1ccc(OCc2csc(-c3ccccc3)n2)cc1 (stereo not shown) [Compound 8.2] | 10 to 100 nM
42 | O=C(O)CC(c1ccccc1)c1ccc(OCc2cccc(Oc3ccccc3)c2)cc1 (stereo not shown) [Compound 84.1] | 10 to 100 nM
43 | CC#CC(CC(=O)O)c1ccc(NCc2cccc(OC)c2)cc1 (stereo not shown) [Compound 36.1] | 100 to 1000 nM
44 | CC#CC(CC(=O)O)c1ccc(OCc2csc(-c3ccc(C)cc3)n2)cc1 (stereo not shown) [Compound 8.5] | 10 to 100 nM
45 | CC(C)CN(CC(C)C)[C@@H](CC(=O)O)c1ccc(OCc2cccc(Oc3ccc(F)cc3)c2)cc1 [Compound 88.1] | > 10000 nM
46 | CC#CC(CC(=O)O)c1ccc(OCc2cccc(-n3cccc3)c2)cc1 (stereo not shown) [Compound 10.14] | 10 to 100 nM

Row | SMILES | EC50
47 | CC#CC(CC(=O)O)c1ccc(OCc2cccc(-c3ccccn3)c2)cc1 (stereo not shown) [Compound 10.8] | 100 to 1000 nM
48 | O=C(O)C[C@H](NC(=O)Cc1ccccc1)c1ccc(OCc2cccc(Oc3ccc(F)cc3)c2)cc1 [Compound 88.4] | > 10000 nM
49 | O=C(O)CN(c1ccccc1)c1ccc(NC(=O)CCc2ccccc2)cc1 [Compound 82.5] | < 10 nM
50 | CC#CC(CC(=O)O)c1ccc(OCc2csc(-c3ccc(OC)cc3)n2)cc1 (stereo not shown) [Compound 8.4] | 10 to 100 nM
51 | COc1ccc(COc2ccc(C(C#Cc3ccccc3)CC(=O)O)cc2)cc1 (stereo not shown) [Compound 14.6] | 1000 to 10000 nM
52 | CC#CC(CC(=O)O)c1ccc(OCc2ccc(-c3nc4ccccc4[nH]3)cc2)cc1 (stereo not shown) [Compound 78] | 1000 to 10000 nM
53 | CC#CC(CC(=O)O)c1ccc(OCc2csc(-c3ccc(OC)c(OC)c3)n2)cc1 (stereo not shown) [Compound 8.6] | 100 to 1000 nM
54 | CC#CC(CC(=O)O)c1ccc(OCc2cccc(-c3ccccc3C(F)(F)F)c2)cc1 (stereo not shown) [Compound 6.8] | 10 to 100 nM
55 | CC#CC(CC(=O)O)c1ccc(OCc2ccc(CCc3ccccc3)cc2)cc1 (stereo not shown) [Compound 10.7] | 100 to 1000 nM
56 | CC(=O)N[C@@H](CC(=O)O)c1ccc(OCc2cccc(Oc3ccc(F)cc3)c2)cc1 [Compound 83] | 1000 to 10000 nM
57 | COc1cccc(CNc2ccc(N(CC(=O)O)c3ccccc3)cc2)c1 [Compound 82.2] | < 10 nM
58 | CC#CC(CC(=O)O)c1ccc(OCc2ccc(-c3ccccc3OCC)cc2)cc1 (stereo not shown) [Compound 7.5] | 10 to 100 nM
59 | CC#C[C@@H](CC(=O)O)c1ccc(OCc2sc(-c3ccc(C)cc3)nc2C)cc1 [Compound 3, (S)-3-[4-(4-Methyl-2-p-tolyl-thiazol-5-ylmethoxy)-phenyl]-hex-4-ynoic acid] | < 10 nM
60 | NC(=O)C(CC(=O)O)c1ccc(OCc2cccc(-c3ccc(C(F)(F)F)cc3)c2)cc1 (stereo not shown) [Compound 90] | 1000 to 10000 nM
61 | CC#CC(CC(=O)O)c1ccc(OCc2ccc(-c3ccccn3)cc2)cc1 (stereo not shown) [Compound 10.4] | 10 to 100 nM
62 | O=C(O)CC(c1ccc(OCc2cccc(-c3ccc(C(F)(F)F)cc3)c2)cc1)c1nn[nH]n1 (stereo not shown) [Compound 88.7] | 1000 to 10000 nM
63 | CC#C[C@@H](CC(=O)O)c1ccc(OCc2ccc(OC)cc2)cc1 [Compound 39.7, (3S)-3-[4-(4-Methoxy-benzyloxy)-phenyl]-hex-4-ynoic acid] | 10 to 100 nM
64 | O=C(O)CC(c1ccc(F)cc1)c1ccc(OCc2cccc(-c3ccc(C(F)(F)F)cc3)c2)cc1 (stereo not shown) [Compound 46.1, 3-(4-fluorophenyl)-3-[4-(4′-trifluoromethyl-biphenyl-3-ylmethoxy)-phenyl]-propionic acid] | 100 to 1000 nM
65 | CC#CC(CC(=O)O)c1ccc(OCc2noc(-c3ccc(C(F)(F)F)cc3)n2)cc1 (stereo not shown) [Compound 27.1] | 100 to 1000 nM
66 | C=CCC(CC(=O)O)c1ccc(OCc2ccc(OC)cc2)cc1 (stereo not shown) [Compound 34.4] | 1000 to 10000 nM
67 | CC#CC(Cc1nnn[nH]1)c1ccc(OCc2ccccc2C)cc1 (stereo not shown) [Compound 23, 5-{2-[4-(2-Methyl-benzyloxy)-phenyl]-pent-3-ynyl}-1H-tetrazole] | 1000 to 10000 nM
